Test results from US8236359B2, “Use of phytoecdysones in the preparation of a composition for acting on the metabolic syndrome” (Institut Biophytis SAS, priority 2007, dated 2012).

Assays:
male mice C57 BL/6 [1] = assay: Effect of phytoecdysones on mice subjected to a fat (lard, inductor) diet for three weeks; assay type: in vivo, mice (Mus musculus line C57BI6)
Description: A test is carried out for studying the effect of phytoecdysones on mice subjected to a fat diet for three weeks
The fat diet or inductor diet consists in supplying large amounts of fat matter in the form of lard. The mice selected for this study are male mice C57 BL/6, 6-weeks old at the beginning of this inductor diet. Such mice are a preferred study model for analyzing the impact of the quinoa extract enriched with phytoecdysones according to the invention on the physiological parameters of the metabolic syndrome.
The inductor diet is a diet enriched with lard.
(§1) The 24 mice of each series have been subjected to a diet, such as detailed in the table 2, for three weeks and have been treated at the same time with the pure molecule, or a quinoa extract enriched up to 1.6% (2.24% the last treatment week for the control series) or 7% of 20-hydroxyecdysone (20E). The concentration of 20-hydroxyecdysone is adjusted to 40 mg per kg of food.
(§2) While taking account of the amount of food ingested on average by the mice, the administered dose of 20E corresponds in the three treatments to 5 mg of 20E per kg of the body weight and per day. The food is supplied in excess, three times a week, for both diets and the three treatments. On average, 40 g of food are supplied for each cage and per day, i.e. 6.5 g of food for each mouse and per day.
(§3) The table 2 below indicates in more detail the composition of the food diet to which the mice are subjected.
(§4) At the time of the sacrifice, the weight of the mice (Bwt), as well as the weight of the liver, the epididymis adipose tissue (EAT) and the subcutaneous adipose tissue (SCAT) are measured.
(§5) Cells of the epididymis adipose tissue are taken for carrying out a count and a morphological analysis.

male mice C57 BL/6 [2] = assay: Effect of phytoecdysones on mice subjected to a normal control diet; assay type: in vivo, mice (Mus musculus line C57BI6)
Description: At the same time, another test is carried out for studying the effect of these same phytoecdysones on mice which have not been subjected to a fat diet, which is considered as a normal control diet.
as §1, §2, §3, §4, §5

## CC(C)(O)CC[C@@H](O)[C@](C)(O)[C@H]1CC[C@@]2(O)C3=CC(=O)[C@@H]4C[C@@H](O)[C@@H](O)C[C@]4(C)[C@H]3CC[C@]12C [pure molecule, 20-hydroxyecdysone]
Male mice C57 BL/6 [1]; FIG. 5, lard control about 70
  mode of the distribution of adipocyte diameters: 60 µm
Male mice C57 BL/6 [1]; FIG. 5, lard control up to 110
  maximum adipocyte diameter of the distribution: 90 µm
Male mice C57 BL/6 [1]; epididymis adipose tissue cells, FIG. 4
  effect on adipocyte diameter: reduces the adipocyte sizes in a significant manner
Male mice C57 BL/6 [1]; gonad and subcutaneous tissue
  obesity / adiposity induced by hyperlipidical and hypercalorific diet (conclusion): avoid a development of the an obesity
Male mice C57 BL/6 [1]; three weeks, 5 mg 20E/kg/day, versus untreated lard-diet mice, FIG. 2
  decrease of the adiposity, gonad (epididymis) adipose tissue (% EAT): 50%
Male mice C57 BL/6 [2]
  effect in non obese animals with a normal diet (conclusion): no effect
Male mice C57 BL/6 [2]; three weeks, 5 mg 20E/kg/day, versus untreated mice, FIG. 2
  adiposity, gonad (epididymis) adipose tissue (% EAT): does not modify the adiposity
